This is an account of results in patent publication US20200055897A1, “MODIFIED PEPTOIDS” (Technion Research & Development Foundation Limited, priority 2017, published 2020).

Starred links: 1 amine or outer side, 2 acyl side, 3 side chain; linkers in the order of their positions; H or OH if unused. Non-standard residues stand in square brackets, D forms with d. Residues, ends and D or L forms follow the SMILES beside them. *: point of attachment. N(1S-cyclohexylethyl)Gly = C[C@H](NCC(=O)O)C1CCCCC1; Gly(N-CH2CH2C6H4-4Cl) = O=C(O)CNCCc1ccc(Cl)cc1; NMeGly(N-(2-F-benzyl)) = CN(CC(=O)*)Cc1ccccc1F; Acetyl(2-(piperazin-1-yl)) = O=C(CN1CCNCC1)*; Hydrazinoacetyl = O=C(CNN[*:1])[*:2]; Gly(Nα-NHCO2Et) = CCOC(=O)NNCC(=O)O; Nrpe = C[C@@H](NCC(=O)O)c1ccccc1; Nspe = C[C@H](NCC(=O)O)c1ccccc1; X1 = O=C(CN1CCN([*:1])CC1)[*:2]; Ethoxycarbonyl = CCOC(=O)*; Nphe = O=C(O)CNCc1ccccc1; X5 = NC(=O)CN1CCN(*)CC1; X3 = O=C(CN1CCCNCC1)* Bounds are passed on as bounds.

One series in a line: General method for water solubility test (gradual addition of water to 1 mg peptoid until clear). In kind it is physicochemical.
Settings: not given
The method, then:
1 mg peptoid was placed in an Eppendorf container and water was added gradually (e.g., […] per addition) until a clear solution was obtained. The solubility test was repeated three times and average values are presented. The limit of the test was typically 2.0×10^2 mg/liter (i.e., 1 mg per 5 ml).
Water solubility tests were carried out by a gradual addition of 5 μl distilled water to 1 mg peptoid until a clear solution was obtained. This assay was repeated three times and results were averaged.
For `CCOC(=O)NNCC(=O)N(CC(=O)N(CC(=O)N(CC(=O)N(CC(=O)N(CC(N)=O)[C@H](C)c1ccccc1)NC(=O)OCC)[C@H](C)c1ccccc1)NC(=O)OCC)[C@H](C)c1ccccc1` [Peptoid P28, reference compound] (Ethoxycarbonyl-[Hydrazinoacetyl][Nrpe][Gly(Nα-NHCO2Et)][Nrpe][Gly(Nα-NHCO2Et)][Nrpe]-NH2), the solubility – broadly, how much of the substance goes into solution per volume – was under 0.2 mg/mL. The same measure, in the same setting: the result for `C[C@@H](C1CCCCC1)N(CC(N)=O)C(=O)CN(C(=O)CN(C(=O)CN(C(=O)CN(C(=O)CN1CCCNCC1)[C@@H](C)C1CCCCC1)[C@@H](C)C1CCCCC1)[C@@H](C)C1CCCCC1)[C@@H](C)C1CCCCC1` [Peptoid P16, (Nsch)5-Nhpz] reads under 0.2 mg/mL; that for `C[C@@H](C1CCCCC1)N(CC(N)=O)C(=O)CN(C(=O)CN(C(=O)CN(C(=O)CN(C(=O)CN1CCN(C(=O)CN2CCN(C(=O)CN3CCNCC3)CC2)CC1)[C@@H](C)C1CCCCC1)[C@@H](C)C1CCCCC1)[C@@H](C)C1CCCCC1)[C@@H](C)C1CCCCC1` [Peptoid P22, (Nsch)5-(Npz)3] ({Acetyl(2-(piperazin-1-yl))}-[X1][X1][N(1S-cyclohexylethyl)Gly][N(1S-cyclohexylethyl)Gly][N(1S-cyclohexylethyl)Gly][N(1S-cyclohexylethyl)Gly][N(1S-cyclohexylethyl)Gly]-NH2), 73.5 mg/mL. Compound `C[C@H](c1ccccc1)N(CCC(N)=O)C(=O)CCN(C(=O)CCN(C(=O)CCN(C(=O)CCN(C(=O)CCN(C(=O)CN1CCN(C(=O)CN2CCNCC2)CC1)[C@H](C)c1ccccc1)[C@H](C)c1ccccc1)[C@H](C)c1ccccc1)[C@H](C)c1ccccc1)[C@H](C)c1ccccc1` [Peptoid P26] registered a solubility of 103 mg/mL. Turning to `C[C@@H](c1ccccc1)N(CC(N)=O)C(=O)CN(C(=O)CN(C(=O)CN(C(=O)CN(C(=O)CN(C(=O)CN1CCCNCC1)[C@@H](C)c1ccccc1)[C@@H](C)c1ccccc1)[C@@H](C)c1ccccc1)[C@@H](C)c1ccccc1)[C@@H](C)c1ccccc1` [Peptoid P7, (Nspe)6-Nhpz] (X3-[Nspe][Nspe][Nspe][Nspe][Nspe][Nspe]-NH2), the “Water solubility relative to that of P2” value is given as “about 50 times” and the solubility came to 49.6 mg/mL. Take `C[C@@H](C1CCCCC1)N(CC(=O)N(CCc1ccc(Cl)cc1)CC(=O)N(CC(=O)N(CC(=O)N(CC(=O)N1CCN(CC(=O)N2CCN(CC(=O)N3CCN(CC(N)=O)CC3)CC2)CC1)Cc1ccccc1)Cc1ccccc1)[C@@H](C)C1CCCCC1)C(=O)CN(C)Cc1ccccc1F` [Peptoid P23, (Npz)3-(Npm)2-Nsch-Ncpe-Nsch-Nfpm] ({NMeGly(N-(2-F-benzyl))}-[N(1S-cyclohexylethyl)Gly][Gly(N-CH2CH2C6H4-4Cl)][N(1S-cyclohexylethyl)Gly][Nphe][Nphe][X1][X1]-X5): the solubility is 135 mg/mL. Turning to `C[C@H](NCC(=O)N(CC(=O)N(CC(=O)N(CC(=O)N(CC(N)=O)[C@@H](C)C1CCCCC1)[C@@H](C)C1CCCCC1)[C@@H](C)C1CCCCC1)[C@@H](C)C1CCCCC1)C1CCCCC1` [Peptoid P10, (Nsch)5, reference compound], the solubility was under 0.2 mg/mL.

In the case of `C[C@@H](C1CCCCC1)N(CC(N)=O)C(=O)CN(C(=O)CN(C(=O)CN(C(=O)CN(C(=O)CN1CCN(C(=O)CN2CCNCC2)CC1)[C@@H](C)C1CCCCC1)[C@@H](C)C1CCCCC1)[C@@H](C)C1CCCCC1)[C@@H](C)C1CCCCC1` [Peptoid P19, (Nsch)5-(Npz)2] ({Acetyl(2-(piperazin-1-yl))}-[X1][N(1S-cyclohexylethyl)Gly][N(1S-cyclohexylethyl)Gly][N(1S-cyclohexylethyl)Gly][N(1S-cyclohexylethyl)Gly][N(1S-cyclohexylethyl)Gly]-NH2), the concentration in solution (solubility) came to 7.52 mg/mL.

`C[C@H](NCC(=O)N(CC(=O)N(CC(=O)N(CC(=O)N(CC(=O)N(CC(N)=O)[C@@H](C)c1ccccc1)[C@@H](C)c1ccccc1)[C@@H](C)c1ccccc1)[C@@H](C)c1ccccc1)[C@@H](C)c1ccccc1)c1ccccc1` [Peptoid P1, (Nspe)6, reference compound] (H-[Nspe][Nspe][Nspe][Nspe][Nspe][Nspe]-NH2): the solubility is under 0.2 mg/mL. Same read-out and setting: the result for `CCOC(=O)NN(CC(=O)N(CC(N)=O)[C@H](C)c1ccccc1)C(=O)CN(C(=O)CN(NC(=O)OCC)C(=O)CN(C(=O)CN(NC(=O)OCC)C(=O)CN1CCN(C(=O)CN2CCNCC2)CC1)[C@H](C)c1ccccc1)[C@H](C)c1ccccc1` [Peptoid P30] ({Acetyl(2-(piperazin-1-yl))}-[X1][Gly(Nα-NHCO2Et)][Nrpe][Gly(Nα-NHCO2Et)][Nrpe][Gly(Nα-NHCO2Et)][Nrpe]-NH2) reads 177 mg/mL; that for `C[C@@H](C1CCCCC1)N(CC(=O)N(CCc1ccc(Cl)cc1)CC(=O)N(CC(=O)N(CC(=O)N(CC(=O)N1CCN(CC(N)=O)CC1)Cc1ccccc1)Cc1ccccc1)[C@@H](C)C1CCCCC1)C(=O)CN(C)Cc1ccccc1F` [Peptoid P17, Npz-(Npm)2-Nsch-Ncpe-Nsch-Nfpm] ({NMeGly(N-(2-F-benzyl))}-[N(1S-cyclohexylethyl)Gly][Gly(N-CH2CH2C6H4-4Cl)][N(1S-cyclohexylethyl)Gly][Nphe][Nphe]-X5), under 0.2 mg/mL; that for `C[C@H](NCC(=O)N(CC(=O)N(CC(=O)N(CC(=O)N1CCN(CC(N)=O)CC1)[C@@H](C)c1cccc2ccccc12)[C@@H](C)c1cccc2ccccc12)[C@@H](C)c1cccc2ccccc12)c1cccc2ccccc12` [Peptoid P13, Npz-(Ns1npe)4], under 0.2 mg/mL. Consider `CCOC(=O)NN(CC(=O)N(CC(N)=O)[C@H](C)c1ccccc1)C(=O)CN(C(=O)CN(NC(=O)OCC)C(=O)CN(C(=O)CN(NC(=O)OCC)C(=O)CN1CCNCC1)[C@H](C)c1ccccc1)[C@H](C)c1ccccc1` [Peptoid P29] ({Acetyl(2-(piperazin-1-yl))}-[Gly(Nα-NHCO2Et)][Nrpe][Gly(Nα-NHCO2Et)][Nrpe][Gly(Nα-NHCO2Et)][Nrpe]-NH2), for which the concentration in solution (solubility) came to 50.6 mg/mL. The compound `C[C@@H](C1CCCCC1)N(CC(N)=O)C(=O)CN(C(=O)CN(C(=O)CN(C(=O)CN(C(=O)CN1CCNCC1)[C@@H](C)C1CCCCC1)[C@@H](C)C1CCCCC1)[C@@H](C)C1CCCCC1)[C@@H](C)C1CCCCC1` [Peptoid P15, (Nsch)5-Npz] had a solubility of under 0.2 mg/mL. `C[C@H](NCC(=O)N(CC(=O)N(CC(=O)N(CC(N)=O)[C@@H](C)c1cccc2ccccc12)[C@@H](C)c1cccc2ccccc12)[C@@H](C)c1cccc2ccccc12)c1cccc2ccccc12` [Peptoid P9, (Ns1npe)4, reference compound] displayed a solubility of under 0.2 mg/mL. `C[C@@H](C1CCCCC1)N(CC(=O)N(CCc1ccc(Cl)cc1)CC(=O)N(CC(=O)N(CC(=O)N(CC(=O)N1CCN(CC(=O)N2CCN(CC(N)=O)CC2)CC1)Cc1ccccc1)Cc1ccccc1)[C@@H](C)C1CCCCC1)C(=O)CN(C)Cc1ccccc1F` [Peptoid P20, (Npz)2-(Npm)2-Nsch-Ncpe-Nsch-Nfpm] ({NMeGly(N-(2-F-benzyl))}-[N(1S-cyclohexylethyl)Gly][Gly(N-CH2CH2C6H4-4Cl)][N(1S-cyclohexylethyl)Gly][Nphe][Nphe][X1]-X5) displayed a solubility of 84.4 mg/mL. `C[C@@H](c1cccc2ccccc12)N(CC(N)=O)C(=O)CN(C(=O)CN(C(=O)CN(C(=O)CN1CCNCC1)[C@@H](C)c1cccc2ccccc12)[C@@H](C)c1cccc2ccccc12)[C@@H](C)c1cccc2ccccc12` [Peptoid P12, (Ns1npe)4-Npz] gave a solubility of under 0.2 mg/mL. As to `C[C@H](c1ccccc1)N(CCC(N)=O)C(=O)CCN(C(=O)CCN(C(=O)CCN(C(=O)CCN(C(=O)CCN(C(=O)CN1CCNCC1)[C@H](C)c1ccccc1)[C@H](C)c1ccccc1)[C@H](C)c1ccccc1)[C@H](C)c1ccccc1)[C@H](C)c1ccccc1` [Peptoid P25], the solubility is under 0.2 mg/mL. The compound `C[C@H](NCC(=O)N(CC(=O)N(CC(=O)N(CC(=O)N(CC(=O)N(CC(=O)N1CCN(CC(N)=O)CC1)[C@@H](C)c1ccccc1)[C@@H](C)c1ccccc1)[C@@H](C)c1ccccc1)[C@@H](C)c1ccccc1)[C@@H](C)c1ccccc1)c1ccccc1` [Peptoid P3, Npz-(Nspe)6] (H-[Nspe][Nspe][Nspe][Nspe][Nspe][Nspe]-X5) gave a solubility of about 900 µM. As to `C[C@@H](C1CCCCC1)N(CC(=O)N(CCc1ccc(Cl)cc1)CC(=O)N(CC(=O)N(CC(=O)N(CC(N)=O)Cc1ccccc1)Cc1ccccc1)[C@@H](C)C1CCCCC1)C(=O)CN(C)Cc1ccccc1F` [Peptoid P11, (Npm)2-Nsch-Ncpe-Nsch-Nfpm, reference compound] ({NMeGly(N-(2-F-benzyl))}-[N(1S-cyclohexylethyl)Gly][Gly(N-CH2CH2C6H4-4Cl)][N(1S-cyclohexylethyl)Gly][Nphe][Nphe]-NH2), the solubility is under 0.2 mg/mL. For the compound `C[C@@H](c1cccc2ccccc12)N(CC(N)=O)C(=O)CN(C(=O)CN(C(=O)CN(C(=O)CN1CCCNCC1)[C@@H](C)c1cccc2ccccc12)[C@@H](C)c1cccc2ccccc12)[C@@H](C)c1cccc2ccccc12` [Peptoid P14, (Ns1npe)4-Nhpz], the solubility is under 0.2 mg/mL.

The same series, now with this note: pH 10.5.
Turning to `C[C@@H](c1ccccc1)N(CC(N)=O)C(=O)CN(C(=O)CN(C(=O)CN(C(=O)CN(C(=O)CN(C(=O)CN1CCN(C(=O)CN2CCN(C(=O)CN3CCNCC3)CC2)CC1)[C@@H](C)c1ccccc1)[C@@H](C)c1ccccc1)[C@@H](C)c1ccccc1)[C@@H](C)c1ccccc1)[C@@H](C)c1ccccc1` [Peptoid P6, (Nspe)6-(Npz)3] ({Acetyl(2-(piperazin-1-yl))}-[X1][X1][Nspe][Nspe][Nspe][Nspe][Nspe][Nspe]-NH2), the “Water solubility at pH 10.5 (in words)” value is “highly soluble” and the “Water solubility relative to that of P2 at pH 10.5” value was determined as 106 times.

The same series, now with this note: water; average of three tests; limit of test 2.0×10^2 mg/liter; read-out: Water solubility.
With `C[C@H](c1ccccc1)N(CCC(N)=O)C(=O)CCN(C(=O)CCN(C(=O)CCN(C(=O)CCN(C(=O)CCN(C(=O)CN1CCN(C(=O)CN2CCN(C(=O)CN3CCNCC3)CC2)CC1)[C@H](C)c1ccccc1)[C@H](C)c1ccccc1)[C@H](C)c1ccccc1)[C@H](C)c1ccccc1)[C@H](C)c1ccccc1` [Peptoid P27], the solubility turned out to be 196 mg/mL. As for `C[C@@H](c1ccccc1)N(CC(N)=O)C(=O)CN(C(=O)CN(C(=O)CN(C(=O)CN(C(=O)CN(C(=O)CN1CCN(C(=O)CN2CCN(C(=O)CN3CCNCC3)CC2)CC1)[C@@H](C)c1ccccc1)[C@@H](C)c1ccccc1)[C@@H](C)c1ccccc1)[C@@H](C)c1ccccc1)[C@@H](C)c1ccccc1` [Peptoid P6, (Nspe)6-(Npz)3] ({Acetyl(2-(piperazin-1-yl))}-[X1][X1][Nspe][Nspe][Nspe][Nspe][Nspe][Nspe]-NH2), the solubility amounted to 88.6 mg/mL.
